Experimental findings from patent publication US6579882B2, “Cell adhesion-inhibiting antiinflammatory compounds” (Abbott Laboratories, priority 1998, dated 2003) are described below.

One series concerns E-Selectin. Briefly: CAM ELISA: E-selectin expression on TNF-stimulated HUVECs. The series is classed as cell-based. The following applies: 1 μM compound, primary human umbilical vein endothelial cells, compound 24 hours, then TNF 5 ng/mL 6 hours; for inhibition at 1 µM: Homo sapiens, Endothelial cell. How it is done:
(§1) Pooled primary human umbilical vein endothelial cells (HtVEC's) (Clonetics) between passages 3 and 7 were plated in 96-well plates (Costar), 100 μL/well, 5×10^4 cells/mL in Clonetics EBM/2% FBS/EGF/Bovine brain extract/gentamicin in the absence of hydrocortisone. The following day, compounds of the invention were added in 10 μL/well medium, and the plates were incubated at 37° C. 24 hours after compound addition, TNF (Gibco/BRL) in 10 μL/well medium was added to a final concentration of 5 ng/mL, and the cells were incubated an additional 6 hours at 37° C. Then media was removed, and the plates were washed once with D-PBS (Gibco/BRL) and treated with primary antibodies (Becton Dickinson, City), 100 μL/well in D-PBS/2% BSA (Sigma)/0.01% azide. Primary antibodies at an initial concentration of 1 mg/mL were used at the following dilutions: anti-ELAM-1, 1:2000, anti-ICAM-1, 1:2000 and anti-VACM-1, 1:3000. Plates were stored overnight at 4° C., washed 3 times with D-PBS, and treated with secondary antibody (Jackson Labs), 100 μL/well 1:8000 dilution HRP-conjugated donkey anti-mouse IgG(H+L) in D-PBS/2%BSA. Plates were incubated a minimum of 1 hour at room temperature, washed 3 times with D-PBS and treated with 100 μL of orhto-phenylene diamine-2 HCl reagent per well. Plates were developed approximately 15 minutes and neutralized with 100 μL/well 1N sulfuric acid. Absorbance was read at 490 nm.
A general note: In an ELISA, binding on a coated surface is turned into a signal by an enzyme label.

For a further series, the system named is ICAM-1. The series is described as follows: CAM ELISA: ICAM-1 expression on TNF-stimulated HUVECs. The following applies: 1 μM compound, primary human umbilical vein endothelial cells, compound 24 hours, then TNF 5 ng/mL 6 hours; for inhibition at 1 µM: Homo sapiens, Endothelial cell. It counts as cell-based. How it is done:
as §1

The subject of a further series is VCAM-1. Briefly: CAM ELISA: VCAM-1 expression on TNF-stimulated HUVECs. It counts as cell-based. The following applies: 1 μM compound, primary human umbilical vein endothelial cells, compound 24 hours, then TNF 5 ng/mL 6 hours; for inhibition at 1 µM: Homo sapiens, Endothelial cell. The protocol:
as §1

As usually defined, the inhibition is the relative decrease from the control value, in per cent. A high value points to strong suppression. For the compound `CNC(=O)c1cc2c(Oc3ccc(OC(F)(F)F)cc3)cncc2s1` [Example 227, N-Methyl-4-[4-(trifluoromethoxy)phenoxy]thieno[2,3-c]pyridine-2-carboxamide], the inhibition at 1 µM turned out to be 61% with E-Selectin, 62% in the series with ICAM-1 and 44% with VCAM-1.

Consider `CNC(=O)c1cc2c(Oc3ccc(C(F)(F)CO)cc3)cncc2s1` [Example 229], for which, in the series on E-Selectin, the “CAM ELISA % Inhibition at 1 μM E-Selectin” value is given as 54%. In the series on ICAM-1, the “CAM ELISA % Inhibition at 1 μM ICAM-1” value was 55%. Further, the “CAM ELISA % Inhibition at 1 μM VCAM-1” value in the series with VCAM-1 stood at 46%.

As for `Nc1nnc(-c2cc3c(Oc4ccc(Cl)cc4)cncc3s2)o1` [Example 275, 5-[4-(4-Chlorophenoxy)thieno[2,3-c]pyridin-2-yl]-1,3,4-oxadiazol-2-amine], the inhibition at 1 µM with E-Selectin stood at 73%; in the series on ICAM-1, 72%; in the series on VCAM-1, 64%.

For the compound `COc1ccccc1-c1cc2c(Oc3ccc(Cl)cc3)cncc2s1` [Example 124, 4-(4-chlorophenoxy)-2-(2-methoxyphenyl)thieno[2,3-c]pyridine], the inhibition at 1 µM with E-Selectin is 18%; in the series with ICAM-1, 29%; with VCAM-1, 26%.

As for `Clc1ccc(Oc2cncc3sc(-c4ncon4)cc23)cc1` [Example 287, 4-(4-Chlorophenoxy)-2-(1,2,4-oxadiazol-3-yl)thieno[2,3-c]pyridine], the inhibition at 1 µM in the series with E-Selectin came out at 49%; in the series on ICAM-1, 49%; in the series on VCAM-1 it was 27%.

As to `CCOCCOCCOCC1(c2ccc(Oc3cncc4sc(C(=O)NC)cc34)cc2)CC1` [Example 226], the “CAM ELISA % Inhibition at 1 μM E-Selectin” value in the series on E-Selectin is listed as 77%. In addition, the “CAM ELISA % Inhibition at 1 μM ICAM-1” value with ICAM-1 came to 74%. Moreover, the “CAM ELISA % Inhibition at 1 μM VCAM-1” value in the series on VCAM-1 turned out to be 56%.

Take `NC(=O)c1cc2c(Oc3ccc(Br)cc3)cnc(Cl)c2s1` [Example 316, 4-(4-Bromophenoxy)-7-chlorothieno[2,3-c]pyridine-2-carboxamide]: the values for the inhibition at 1 µM in the series with E-Selectin, with ICAM-1 and in the series on VCAM-1 were 76%, 68% and 42%, respectively.

With `CNC(=O)c1cc2c(Oc3ccc(N4CCOCC4)cc3)cncc2s1` [Example 190C, N-Methyl-4-[4-(4-morpholinyl)phenoxy]thieno[2,3-c]pyridine-2-carboxamide], the inhibition at 1 µM was 70% in the series on E-Selectin, 65% in the series on ICAM-1 and 37% in the series on VCAM-1.

With `Nc1nnc(-c2cc3c(Oc4ccc(Br)cc4)cncc3s2)o1` [Example 276, 5-[4-(4-Bromophenoxy)thieno[2,3-c]pyridin-2-yl]-1,3,4-oxadiazol-2-ylamine], the inhibition at 1 µM in the series on E-Selectin turned out to be 66%; in the series with ICAM-1 it was 61%; with VCAM-1, 52%.

As usually defined, the melting point is the temperature of the solid-liquid transition. For `CNC(=O)c1cc2c(Oc3cccc(F)c3F)cncc2s1` [Example 179, 4-(2,3-Difluorophenoxy)-N-methylthieno[2,3-c]pyridine-2-carboxamide], the melting point lay in the range of 169 to 171 °C.

In turn, `CCc1cc2c(Sc3ccccn3)ncnc2s1` [Example 3, 6-ethyl-4-(2-pyridinylthio)thieno[2,3-d]pyrimidine] returned a melting point of 76.5 to 79 °C.

`N#Cc1cc2c(Oc3ccc(Cl)cc3)cncc2s1` [Example 248, 4-(4-Chlorophenoxy)thieno[2,3-c]pyridine-2-carbonitrile] had a melting point of 140 to 142 °C.

In turn, `Cc1ccc(Sc2cncc3sc(C(N)=S)cc23)cc1` [Example 41, 4-[(4-methylphenyl)thio]thieno[2,3-c]pyridine-2-carbothioamide] showed a melting point of 181 to 183 °C.

`CN(C)C(=O)c1cc2c(Oc3ccc(C(F)(F)F)cc3)cncc2s1` [Example 173, N,N-Dimethyl-4-[4-(trifluoromethyl)phenoxy]thieno[2,3-c]pyridine-2-carboxamide] displayed a melting point of 74 to 76 °C.

`CC(=O)c1cc2c(Sc3ccc(C)cc3)cncc2s1` [Example 33, 1-[4-[(4-methylphenyl)thio]thieno[2,3-c]pyridin-2-yl]ethanone] showed a melting point of 134 to 138 °C.

For the compound `Cc1c(C(N)=O)sc2cncc(Oc3ccc(Br)cc3)c12` [Example 304, 4-(4-Bromophenoxy)-3-methylthieno[2,3-c]pyridine-2-carboxamide], the melting point was in the range of 177 to 178 °C.

In the case of `Cc1ccc(Sc2cncc3sc(C(=O)NCC(O)CO)cc23)cc1` (stereo not drawn) [Example 37, N-(2,3-dihydroxypropyl)-4-[(4-methylphenyl)thio]thieno[2,3-c]pyridine-2-carboxamide], the melting point lay within 120 to 122 °C.

`C=Cc1ccc(Oc2cncc3sc(C(=O)N(C)C)cc23)cc1` [Example 185, N,N-Dimethyl-4-(4-vinylphenoxy)thieno[2,3-c]pyridine-2-carboxamide] displayed a melting point of 80 to 81 °C.

For `CON=C(C)c1cc2c(Oc3ccc(Cl)cc3)cncc2s1` [Example 243A, 1-[4-(4-Chlorophenoxy)thieno[2,3-c]pyridin-2-yl]-1-ethanone O-methyloxime], the melting point lay in the range of 126 to 128 °C.

As for `Cc1cccc(Sc2cncc3sc(C(N)=O)cc23)c1` [Example 49, 4-[(3-methylphenyl)thio]thieno[2,3-c]pyridine-2-carboxamide], the melting point lay within 171 to 173 °C.

The compound `Cc1ccc(Sc2cncc3sc(C(N)=O)cc23)c(C)c1` [Example 52, 4-[(2,4-dimethylphenyl)thio]thieno[2,3-c]pyridine-2-carboxamide] came in with a melting point of 193 to 195 °C.

Regarding `Clc1ccc(Oc2cncc3sc(C4=NCCO4)cc23)cc1` [Example 296, 4-(4-Chlorophenoxy)-2-(4,5-dihydro-1,3-oxazol-2-yl)thieno[2,3-c]pyridine], the melting point is 158 to 160 °C (dec.).

`NC(=O)CNC(=O)c1cc2c(Oc3ccc(Cl)cc3)cncc2s1` [Example 160, N-(2-Amino-2-oxoethyl)-4-(4-chlorophenoxy)thieno[2,3-c]pyridine-2-carboxamide] gave a melting point of 222 to 225 °C.

`NC(=O)NCc1cc2c(Oc3ccc(Cl)cc3)cncc2s1` [Example 258, N-1[4-(4-Chlorophenoxy)thieno[2,3-c]pyridin-2-yl]methyl urea]: the melting point lay in the range of 202 to 204 °C.

In the case of `NC(=O)c1cc2c(Oc3ccc(Cl)cc3)c[nH]c(=O)c2s1` [Example 323, 4-(4-Chlorophenoxy)-7-oxo-6,7-dihydrothieno[2,3-c]pyridine-2-carboxamide], the melting point was above 250 °C.

In turn, `Nc1ccccc1C(=O)c1cc2c(Oc3ccc(Cl)cc3)cncc2s1` [Example 251, (2-Aminophenyl)[4-(4-chlorophenoxy)thieno[2,3-c]pyridin-2-yl]methanone] yielded a melting point of 152 to 154 °C.

With `NC(=O)c1cc2c(SC3CCCCC3)cncc2s1` [Example 57, 4-(cyclohexylthio)thieno[2,3-c]pyridine-2-carboxamide], the melting point was in the range of 205 to 207 °C.

Consider `CN(C)C(=O)c1cc2c(Oc3ccc(Br)cc3)cncc2s1` [Example 172, 4-(4-Bromophenoxy)-N,N-dimethylthieno[2,3-c]pyridine-2-carboxamide], for which the melting point was 93 to 95 °C.

In turn, `COc1ccc(Sc2cncc3sc(C(N)=O)cc23)cc1` [Example 56, 4-[(4-methoxyphenyl)thio]thieno[2,3-c]pyridine-2-carboxamide] registered a melting point of 219 to 221 °C.

With `NCc1cc2c(Oc3ccc(Cl)cc3)cncc2s1` [Example 256, [4-(4-Chlorophenoxy)thieno[2,3-c]pyridin-2-yl]methanamine], the melting point is 78.6 to 79.8 °C.

For the compound `CCc1cc2c(Sc3nnc(C)s3)ncnc2s1` [Example 6, 6-ethyl-4-[(5-methyl-1,3,4-thiadiazol-2-yl)thio]thieno[2,3-d]pyrimidine], the melting point fell in the range of 132 to 135 °C.

Compound `NC(=O)c1cc2c(Oc3cccc(F)c3F)cncc2s1` [Example 178, 4-(2,3-Difluorophenoxy)thieno[2,3-c]pyridine-2-carboxamide] came in with a melting point of 207 to 209 °C.

Take `Cc1ccc(Sc2cncc3sccc23)cc1` [Example 42, 4-[(4-methylphenyl)thio]thieno[2,3-c]pyridine]: the melting point is 94 to 95 °C.

Regarding `Cc1ccc(Sc2ccnc3sc(C(N)=O)cc23)cc1` [Example 132D, 4-[(4-methylphenyl)thio]thieno[2,3-b]pyridine-2-carboxamide], the melting point is 280 to 282 °C.

Turning to `Cc1ccc(Sc2cncc3sc(C(=O)Nc4ccc(Cl)cc4)cc23)cc1` [Example 24, N-(4-chlorophenyl)-4-[(4-methylphenyl)thio]thieno[2,3-c]pyridine-2-carboxamide], the melting point lay in the range of 208 to 211 °C.

As to `Cc1csc2c(Sc3nnc(N)s3)ncnc12` [Example 14, 4-[(5-amino-1,3,4-thiadiazol-2-yl)thio]-7-methylthieno[3,2-d]pyrimidine], the melting point is 221 to 223 °C.
